According to patent US12084445B2, “Broad-spectrum carbapenems” (VenatoRx Pharmaceuticals, Inc., priority 2018, dated 2024):
Read-outs that look alike come from different tables or passages of the source.

Legend:
Type in all cases: cell-based
[1] = test system: P. aeruginosa ΔmexAB-OprM (an efflux pump knockout); assay: broth microdilution MIC assay, P. aeruginosa ΔmexAB-OprM; conditions: Pseudomonas aeruginosa, 20 h, read-out: P. aeruginosa ΔmexAB-OprM MIC
Outline: (§1)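 Colonies from Mueller Hinton II agar → MH broth (divalent cations supplemented), 37 °C, 200 rpm, 3-5 h → OD600-adjusted to 5×10^5 CFU/mL final → 2-fold serial compound dilutions → 16-20 h, 37 °C → visual MIC.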

[2] = test system: S. aureus ATCC 33591 (methicillin-resistant); assay: broth microdilution MIC assay, S. aureus ATCC 33591; conditions: Staphylococcus aureus
Outline: as §1

[3] = test system: P. aeruginosa 35151 (hyper-permeable strain); assay: broth microdilution MIC assay, P. aeruginosa 35151; conditions: Pseudomonas aeruginosa, read-out: P. aeruginosa 35151 MIC
Outline: as §1

[4] = test system: P. aeruginosa PA 3 (a clinical isolate of reduced carbapenem susceptibility); assay: broth microdilution MIC assay, P. aeruginosa PA 3; conditions: Pseudomonas aeruginosa; Table 5; P. aeruginosa PA3
Procedure: (§2) To determine the ability of test compounds to potentiate the inhibition of the growth of bacterial strains, classic cell-based broth microdilution MIC assays were employed. MIC assays are performed according to CLSI methods except where otherwise noted (CLSI, 2011 and CLSI, 2009). The reference strains S. aureus ATCC 29213 (methicillin sensitive), S. aureus ATCC 33591 (methicillin-resistant), E. coli ATCC 25922 (wild-type/QC strain), P. aeruginosa ATCC 27853 (wild-type/QC strain), and the clinical isolate P. aeruginosa PA 8 were used to determine the ability of the exemplary carbapenem compounds to inhibit bacterial growth. An expanded panel of methicillin resistance S. aureus (MRSA) and Pseudomonas was also used to determine the ability of exemplary carbapenem compounds to inhibit bacterial growth across a broader representation of those species. To determine activity in MRSA and in addition to S. aureus ATCC 33591, S. aureus USA 300, USA 400 and USA 600, some of the most common clones found to cause human infection, were also used. To further gauge the impact on the carbapenem compounds due to various resistance mechanisms in Pseudomonas, the following strains were included: P. aeruginosa 35151 (hyper-permeable strain), P. aeruginosa AmexAB-OprM (an efflux pump knockout), and P. aeruginosa PA 3 (a clinical isolate of reduced carbapenem susceptibility). Briefly, cryo-preserved bacterial cultures of clinical strains are streaked for isolation on appropriate agar medium, in this case Mueller Hinton II agar. Following incubation to allow formation of colonies, these plates are sealed with parafilm and stored refrigerated for up to two weeks. For preparation of assay inocula and to ensure low variability, at least 5 colonies are picked from the agar plates with an inoculating loop and aseptically transferred to a culture tube containing 3 mL of Mueller-Hinton Broth (supplemented with divalent cations to required levels based on Manufacturers' specification). The broth culture is grown for 3-5 hours at 37° C. with shaking at 200 rpm. Meanwhile, 2-fold serial dilutions of test compounds are conducted in a 96 well plate with a final volume of 75 μL per well at 2-fold the final desired concentration. After the dilution plates are set up the growing cultures are then diluted in a cuvette containing MH II broth and the optical density is measured at 600 nm. Inocula are diluted such that 75 μL of this culture in Mueller-Hinton Broth results in a starting bacterial concentration of 5×10^5 CFU/mL when added to the dilution plates. The plates are incubated 16-20 hours at 37° C. The MIC is read visually as the lowest concentration well with no bacterial growth.
(§3) Representative results are shown in Tables 3, 4, and 5 where A represents an MIC>32 μg/mL, B represents an MIC between 8 and 32 μg/mL inclusive, C represents an MIC between 1 and 4 μg/mL inclusive, and D represents an MIC of <1 μg/mL. NT=Not Tested.

[5] = test system: clinical isolate P. aeruginosa PA 8; assay: broth microdilution MIC assay, P. aeruginosa PA 8; conditions: Pseudomonas aeruginosa, P. aeruginosa PA8
Outline: as §1

[6] = test system: E. coli ATCC 25922 (wild-type/QC strain); assay: broth microdilution MIC assay, E. coli ATCC 25922; conditions: Escherichia coli, ATCC25922, E. coli 25922, read-out: E. coli 25922 MIC
Outline: as §1

S. aureus USA 300 = assay: broth microdilution MIC assay, S. aureus USA 300; conditions: Staphylococcus aureus; Table 4; S. aureus USA300; read-out: S. aureus USA300 MIC
Outline: as §1

S. aureus USA400 = assay: broth microdilution MIC assay, S. aureus USA 400; conditions: Staphylococcus aureus, Table 4
Procedure: as §2, §3

S. aureus USA600 = assay: broth microdilution MIC assay, S. aureus USA 600; conditions: Staphylococcus aureus; Table 4; S. aureus USA600; read-out: S. aureus USA600 MIC
Outline: as §1

[7] = test system: P. aeruginosa ATCC 27853 (wild-type/QC strain); assay: broth microdilution MIC assay, P. aeruginosa ATCC 27853; conditions: Pseudomonas aeruginosa, ATCC27853, P. aeruginosa 27853, read-out: P. aeruginosa 27853 MIC
Outline: as §1

[8] = test system: S. aureus ATCC 29213 (methicillin sensitive); assay: broth microdilution MIC assay, S. aureus ATCC 29213; conditions: Staphylococcus aureus, ATCC 29213 / MSSA; Table 3; S. aureus 29213 (MSSA); read-out: S. aureus 29213 (MSSA) MIC
Outline: as §1

[9] = ATCC33591, Table 4, S. aureus 33591, read-out: S. aureus 33591 MIC

`C[C@@H](O)[C@H]1C(=O)N2C(C(=O)O)=C(S[C@@H]3CCN(CC4CCN(C(=N)N)CC4)C3)[C@H](C)[C@H]12` [Example 35, (4R,5S,6S)-3-(((R)-1-((1-carbamimidoylpiperidin-4-yl)methyl)pyrrolidin-3-yl)thio)-6-((R)-1-hydroxyethyl)-4-methyl-7-oxo-1-azabicyclo[3.2.0]hept-2-ene-2-carboxylic acid] was tested, and the MIC [1] was less than 1 µg/mL, the MIC ([2]; ATCC 33591 / MRSA, Table 3, S. aureus 33591 (MRSA), read-out: S. aureus 33591 (MRSA) MIC) was 1 to 4 µg/mL and the MIC [2, 9] was 1 to 4 µg/mL. The MIC [3] was less than 1 µg/mL, the MIC [4] was 8 to 32 µg/mL and the MIC ([5]; Table 3) was 1 to 4 µg/mL. It also gave an MIC ([5]; Table 5) of 1 to 4 µg/mL, an MIC ([6]; Table 3) of less than 1 µg/mL and an MIC ([6]; Table 4) of less than 1 µg/mL. For the same compound, the MIC (S. aureus USA 300) was less than 1 µg/mL, the MIC (S. aureus USA400) was 1 to 4 µg/mL and the MIC (S. aureus USA600) was less than 1 µg/mL. For the same compound, the MIC ([7]; Table 3) was 1 to 4 µg/mL, the MIC ([7]; Table 5) was 1 to 4 µg/mL and the MIC [8] was 1 to 4 µg/mL.
For `C[C@@H](O)[C@H]1C(=O)N2C(C(=O)O)=C(SC3CN(CC4CCNCC4)C3)[C@H](C)[C@H]12` [Example 42, (4R,5S,6S)-6-((R)-1-hydroxyethyl)-4-methyl-7-oxo-3-((1-(piperidin-4-ylmethyl)azetidin-3-yl)thio)-1-azabicyclo[3.2.0]hept-2-ene-2-carboxylic acid], the MIC [1] was 1 to 4 µg/mL, the MIC [2, 9] was 1 to 4 µg/mL and the MIC [3] was less than 1 µg/mL. It also gave an MIC [4] of 8 to 32 µg/mL, an MIC ([5]; Table 5) of 1 to 4 µg/mL and an MIC ([6]; Table 4) of less than 1 µg/mL. The MIC (S. aureus USA 300) was 1 to 4 µg/mL, the MIC (S. aureus USA400) was 1 to 4 µg/mL and the MIC (S. aureus USA600) was 1 to 4 µg/mL. For the same compound, the MIC ([7]; Table 5) was 1 to 4 µg/mL.
For `C[C@@H](O)[C@H]1C(=O)N2C(C(=O)O)=C(SC3CCN(CC4CCNCC4)CC3)[C@H](C)[C@H]12` [Example 44, (4R,5S,6S)-6-((R)-1-hydroxyethyl)-4-methyl-7-oxo-3-((1-(piperidin-4-ylmethyl)piperidin-4-yl)thio)-1-azabicyclo[3.2.0]hept-2-ene-2-carboxylic acid], the MIC [1] was 1 to 4 µg/mL, the MIC [2, 9] was 8 to 32 µg/mL and the MIC [3] was less than 1 µg/mL. For the same compound, the MIC [4] was 8 to 32 µg/mL, the MIC ([5]; Table 5) was 8 to 32 µg/mL and the MIC ([6]; Table 4) was 1 to 4 µg/mL. For the same compound, the MIC (S. aureus USA 300) was 1 to 4 µg/mL, the MIC (S. aureus USA400) was 1 to 4 µg/mL and the MIC ([7]; Table 5) was 8 to 32 µg/mL.
